The record followed here is patent publication US20240108637A1, “EPITE[…] AND/OR A STEROID SULFATASE INHIBITOR FOR USE IN TREATING OR IMPROVING AGE RELATED COGNITIVE IMPAIRMENT” (U[…] DE OLAVIDE, priority 2020, published 2024).

The subject of test [1] is CL2006 strain expressing human β-amyloid in muscle. In words: Alzheimer's disease model: paralysis with age of CL2006 strain. It counts as in vivo, C. elegans. To be noted: Log-rank (Mantel-Cox) test p=0.007, FIG. 12g. From the text:
(§1) In this model, GFP-labelled dopaminergic neurons die due to α-synuclein toxicity. […] We also tested two different strains of Alzheimer's disease (AD) in worms, where immobility is caused by expression of βA protein in muscle cells.

The subject of test [2] is APP-PS1 mice. In words: Passive avoidance test in APP-PS1 mice. The test is classed as in vivo. To be noted: APP-PS1 mice older than 15-month-old; 3-4 weeks oral. The text has this: (§2) As STX64 ameliorated neurodegeneration in C. elegans models, we tested the effect of this drug on cognitive alterations provoked by intrahippocampal βA oligomers infusion, an acute AD mammalian model (FIG. 3i). […] To evaluate the effect of STX64 oral treatment on amyloid pathology in a chronic AD mice model, we assessed the effect of 3-4 weeks of STX64 oral treatment on amyloid deposition in the neocortex (the cerebral cortex and the hippocampus) of >15-month-old APP-PS1 mice (FIG. 4k). […] We wondered if this histological improvement correlated with amelioration of cognitive behavioural deficit. For that, we compared cognition capacities in APP-PS1 mice older than 15-month-old treated with vehicle or STX64 for 3-4 weeks.
(§3) The first, object recognition, after training with identical objects, tests the ability to identify different objects exposed together with a familiar one. When this happens, the object discrimination index is positive and higher than 0.1. […] For this purpose, during training, the entry latency to the preferred site is established and the aversive stimulus is administered.

The test system of test [3] is GMC101 strain expressing human β-amyloid in muscle. Put plainly: Alzheimer's disease model: thermodependent paralysis of GMC101 strain. It counts as in vivo, C. elegans. Conditions: 1 μg/ml, FIG. 3h, FIG. 4b.
Description: as §1

The subject of test [4] is APP-PS1 mice. In words: β-amyloid deposition in frontal cortex and hippocampus (chronic AD model). The test is classed as in vivo. To be noted: 3-4 weeks oral.
Description: as §2

A further test has as its system 16-month-old mice. In words: Y maze test. The test is classed as in vivo. To be noted: aged animals, Y maze 6 minutes, FIG. 20. The procedure:
The “Open Field” is a test where the mouse must explore an unknown space for 15 minutes. In this test, both mobility and habituation (cognitive parameter that measures the individual's ability to recognize the environment) can be studied. On the other hand, the “Y maze” test is a test where the mouse explores the maze for 6 minutes. This test evaluates the distance traveled as a measure of mobility and the ability to visit triplets of arms without repeating any of them as a sign of immediate memory.

Another test concerns C. elegans. Put plainly: Lifespan assays in C. elegans. The test is classed as in vivo, Caenorhabditis elegans. The procedure: F2 L4 animals were shifted to 25° C. (t=0). ES treatment started at L4 stage, control and treated plates were prepared fresh and animals transferred each three days until death. Animals lost or dead by non-physiological causes were censured. Survival curves were generated using the product-limit method of Kaplan and Meier. The log-rank (Mantel-Cox) test was used to evaluate differences in survival and […] lower than 0.05 were considered significant.

Test [5] concerns aged mice. Put plainly: Cognition of aged mice under STX64 treatment (FIG. 16-19, headline). It counts as in vivo.
Test [6] deals with NL5901 strain expressing α-synuclein in muscle cells. In words: Parkinson's disease model: mobility of NL5901 strain. To be noted: 1 μg/ml. The test is classed as in vivo, C. elegans. The text has this: We have studied the anatomical location of sul-2 expression from an extrachromosomal array and in single-copy insertion transgenic strains. […] There is no detectable expression in the germline in any transgenic strains (FIG. 2n and FIG. 10, 11a-b). ASE neurons are responsible for the attractive response of Na+ and Cl−, among others. Defects in odour sensing affect longevity. Therefore, we tested the ability of sul-2 mutants to respond to Cl− or Na+ and found no differences compared to wild type animals (FIG. 11c-d). Furthermore, sul-2 mutation increases the longevity of daf-10(m79), a long-lived mutant defective in sensory cilia formation25 (FIG. 11e). […] Reduction of sul-2 improves aging associated diseases in C. elegans Aging is considered the main risk factor for the onset of neurodegenerative disorders like Parkinson, Huntington, or Alzheimer's diseases. These disorders are caused by the progressive decline of proteostasis, which results in protein aggregation that compromises cellular functions and finally causes cell death. Germline-deficient C. elegans delay the symptoms derived from the proteotoxicity of ectopically expressed human β-amyloid (βA). We tested if sul-2 mutations or STX64 treatment improves the symptoms of C. elegans models for neurodegenerative diseases.

For test [7], the system named is polyglutamine repeats fused to YFP (Q40 background, strain AM141). Put plainly: Huntington neurodegenerative model: number of polyglutamine aggregates. The test is classed as in vivo, C. elegans. To be noted: 1 μg/ml, 5-day old worms.
Test [8] has as its system aged mice. Put plainly: Passive avoidance test in aged mice (STM and LTM). The test is classed as in vivo. The procedure: as §3
During short- and long-term memory tests (STM and LTM) if the mouse associated the preferred place to the aversive stimulus, the input latency increases with respect to training.

“Also recorded” adds a separate entry of the source.

With `NS(=O)(=O)Oc1ccc2c3c(c(=O)oc2c1)CCCCC3` [STX64], in test [1], the paralysis with age entry is recorded as “delayed paralysis; also recorded: ameliorated”. In addition, the “cognitive deficiencies, passive avoidance test” value in the test with APP-PS1 mice [2] was “completely reverted cognitive deficiencies”. Also, the paralysis phenotype entry in [3] is listed as “the paralysis phenotype is ameliorated; also recorded: delayed paralysis”. Moreover, the “βA deposition compared with un-treated APP-PS1 mice of 10-12 months of age” value in the test on APP-PS1 mice [4] (APP-PS1 mice older than 15 months) is “reduces βA deposition”. Also, the βA immunoreactive area result in the test on APP-PS1 mice [4] (frontal cortex and hippocampus, >15-month-old APP-PS1 mice) is “reduced in both tissues”. Also, in the test on APP-PS1 mice [4] (frontal cortex and hippocampus, >15-month-old APP-PS1 mice, 0.005 mg/ml in drink water), the βA plaque density entry is recorded as “significant reduction”. In addition, in the test on APP-PS1 mice [4] (frontal cortex, >15-month-old APP-PS1 mice, 0.005 mg/ml in drink water), the βA plaque size entry is reported as “significant reduction”. Also, the immediate memory entry with 16-month-old mice is “tend to improve”; with 16-month-old mice (listed as STX), “are improved”. Also, the “dependence of the increase of longevity on daf-36” value with C. elegans (daf-36 mutant, 1 μg/ml, FIG. 2m) is “daf-36 is necessary for the increase of longevity; also recorded: DAF-36 is required for the longevity”. The lifespan entry with C. elegans (sul-2 (gk187) deletion background, 1 μg/ml, UV-killed E. coli, FIG. 1D) is on record as “does not further increase the longevity”; with C. elegans (wild type animals, 1 μg/ml, UV-killed E. coli, FIG. 1D), “increases lifespan”; in the test on C. elegans (wild type, non-UV E. coli, FIG. 7a), “increases lifespan of wild type”. The longevity result in the test on C. elegans (wild type animals, text statement (FIG. 1d, FIG. 7a-c)) is “increase in longevity; also recorded: extends lifespan”. In addition, the cognition entry is reported as “improves cognition” in the test on aged mice [5] (1-month treatment in 18 months old mice, 19 months when assayed, FIG. 18); “improves cognition” in the test on aged mice [5] (3-month treatment in 18 months old mice, 21 months when assayed, FIG. 19); “improves cognition” in the test with aged mice [5] (3 months treatment in 15 months old mice, FIG. 16); “improves cognition” with aged mice [5] (6 months treatment in 15 months old mice, 21 months when assayed, FIG. 17). Further, the mobility with age entry in test [6] is reported as “reduce mobility with age at a slower rate; also recorded: significantly improved mobility; also recorded: protective effect”. For the same compound, in [7], the “number of polyglutamine aggregates” value is “aggregates are reduced; also recorded: reduced the number of aggregates”. For the same compound, the “short term and long-term memory in passive avoidance test” value in the test on aged mice [8] (1-month treatment in 18 months old mice, FIG. 18B) is listed as “significant improvement”. Moreover, the “learning (STM) and memory (LTM), passive avoidance test” value in the test on aged mice [8] (aged mice, vs vehicle-treated, FIG. 21, listed as STX) was “showed significantly both learning (STM) and ability to store information (memory); also recorded: significant improvement in both learning (STM) and ability to store information (memory)”.
